From patent publication US20180333427A1, “ANTI-FATIGUE COMPOSITION AND USE THEREOF” (CHENGZHI LIFE SCIENCE., LTD., priority 2013, published 2018)

System: fatigue mice
Experiment: Weight loading swimming test of fatigue mice (Example 1)
Assay type: in vivo, ICR male mice
Conditions: for restoration of energy / strength in the state of fatigue: control group glucose 1 g/kg; for swimming time of fatigue mice: intragastric, daily dose in three times, swimming continued for three days, ribose 2.5 g/kg, caffeine 75 mg/kg, ribose 1250 mg/kg+caffeine 40 mg/kg
Description: The mice swim with the load twice every day, respectively in the morning and afternoon. The sum of the swimming times is recorded as the swimming time for one day. The average of the swimming times for the last two days is taken as a reference, and the mice are kept swimming every day until the day in which the swimming time is below 80% of the reference, and that is considered as fatigue. […] The respective agents are given by intragastric administration with a dosage of 0.2 ml/10 g, and the daily dose is given in three times. The mice are administrated with the agents 30 minutes before swimming in the morning and afternoon, respectively, and administrated again when the furs of the mice dry after swimming in the afternoon. The mice are continued to swim for three days under the prior condition as described in Section 1.2. After swimming, the respective agents are continually administered to the mice 3 times/day for 3 days, except those to be sampled immediately, then taken as materials. […] The swimming time for each group on day 0 is set for 1, the swimming time for each group on day 1, 2 and 3 is compared to that on day 0 respectively, and thereby the change rate (%) is obtained.

Structure (SMILES): Cn1c(=O)c2c(ncn2C)n(C)c1=O [caffeine]
- anti-fatigue effect (fatigue mice, weight loading swimming, three days): does not produce sustained anti-fatigue effect
- restoration of energy / strength in the state of fatigue (fatigue mice): restore some strength in a short time but increase fatigue with the extension of time
- swimming time of fatigue mice: shortened with the extension of training time

Structure (SMILES): O=C[C@H](O)[C@H](O)[C@H](O)CO [ribose, D-ribose]
- restoration of energy / strength in the state of fatigue (fatigue mice): restore energy more quickly than the control group
- swimming time of fatigue mice: increased with the extension of training time
